Data taken from patent US20080045514A1 (Cytovia, Inc., priority 2006, published 2008).
pEC50: −log10 of the molar value. Read-outs that look alike come from different tables or passages of the source.

Assays:
Format in all cases: cell-based
[1] = system: human breast cancer cell line T-47D; test: Caspase cascade activation (EC50), T-47D; conditions: Homo sapiens, T47D cells
Description: (§1) Human breast cancer cell lines T-47D, human hepatocellular carcinoma cell line SNU398, human colon carcinoma cell line HCT116, human cancer cell line H1299, human Burkitt's lymphoma cell line Namalwa, human lymphoma cell line Raji, and human B cell lymphoblastoid cell line Ramos were grown according to media component mixtures designated by American Type Culture Collection+10% FCS (Invitrogen Corporation), in a 5% CO2-95% humidity incubator at 37° C. T-47D and H1299 cells were maintained at a cell density between 50 and 80% confluency at a cell density of 0.1 to 0.6×10^6 cells/mL. Cells were harvested at 600×g and resuspended at 0.65×10^6 cells/mL into appropriate media+10% FCS. An aliquot of 22.5 μL of cells was added to a well of a 384-well microtiter plate containing 2.5 μL of a 10% DMSO in RPMI-1640 media solution containing 0.16 to 100 μM of 3-(2-chlorophenyl)-6-(3,4-methylenedioxyphenyl)-7H-[1,2,4]triazolo[3,4-b][1,3,4]thiadiazine or other test compound (0.016 to 10 μM final). An aliquot of 22.5 μL of cells was added to a well of a 384-well microtiter plate containing 2.5 μL of a 10% DMSO in RPMI-1640 media solution without test compound as the control sample. The samples were mixed by agitation and then incubated at 37° C. for 48 h in a 5% CO2-95% humidity incubator. After incubation, the samples were removed from the incubator and 25 μL of a solution containing 14 μM of N—(Ac-DEVD)-N′-ethoxycarbonyl-R110 (SEQ ID No.:1) fluorogenic substrate (Cytovia, Inc.; WO99/18856), 20% sucrose (Sigma), 20 mM DTT (Sigma), 200 mM NaCl (Sigma), 40 mM Na PIPES buffer pH 7.2 (Sigma), and 500 μg/mL lysolecithin (Calbiochem) was added. The samples were mixed by agitation and incubated at room temperature. Using a fluorescent plate reader (Model SPECTRAfluor Plus, Tecan), an initial reading (T=0) was made approximately 1-2 min after addition of the substrate solution, employing excitation at 485 nm and emission at 530 nm, to determine the background fluorescence of the control sample. After the 3 h incubation, the samples were read for fluorescence as above (T=3 h). Calculation: The Relative Fluorescence Unit values (RFU) were used to calculate the sample readings as follows: RFU(T=3H)−Control RFU(T=0)=Net RFU(T=3h) The activity of caspase cascade activation was determined by the ratio of the net RFU value for 3-(2-chlorophenyl)-6-(3,4-methylenedioxyphenyl)-7H-[1,2,4]triazolo[3,4-b][1,3,4]thiadiazine (Example P) or other test compound to that of control samples. The EC50 (nM) was determined by a sigmoidal dose-response calculation (Prism 3.0, GraphPad Software Inc.).

[2] = system: human hepatocellular carcinoma cell line SNU398; test: Caspase cascade activation (EC50), SNU398; conditions: Homo sapiens, SNU-398, SNU398 cells
Description: as §1

[3] = system: human colon carcinoma cell line HCT116; test: Caspase cascade activation (EC50), HCT116; conditions: Homo sapiens, HCT-116, HCT116 cells
Description: as §1

[4] = system: human Burkitt's lymphoma cell line Namalwa; test: Caspase cascade activation (EC50), Namalwa; conditions: Homo sapiens, Burkitts lymphoma cell, Namalwa cells
Description: as §1

[5] = caspase cascade activation, read-out: caspase potency (EC50) T47D
[6] = caspase cascade activation, read-out: caspase potency (EC50) SNU398
[7] = caspase cascade activation, read-out: caspase potency (EC50) HCT116
[8] = caspase cascade activation, read-out: caspase potency (EC50) Namalwa
[9] = read-out: Caspase potency (EC50) T47D
[10] = read-out: Caspase potency (EC50) SNU398
[11] = read-out: Caspase potency (EC50) HCT116
[12] = read-out: Caspase potency (EC50) Namalwa

Structure (SMILES) | pEC50 [1, 5] | pEC50 [2, 6] | pEC50 [3, 7] | pEC50 [4, 8] | pEC50 [1, 9] | pEC50 [2, 10] | pEC50 [3, 11] | pEC50 [4, 12]
Cc1cc(Cl)ccc1-c1nnc2n1N=C(c1ccc(C)c([N+](=O)[O-])c1)CS2 [Example 90, 3-(4-Chloro-2-methylphenyl)-6-(4-methyl-3-nitrophenyl)-7H-[1,2,4]triazolo[3,4-b][1,3,4]thiadiazine] | 6.04 | 6.39 | 6.31 | 6.52 | – | – | – | –
COc1cc(-c2n[nH]c3nc(=O)c(-c4ccc(C)cc4)nn23)cc(OC)c1OC [Example 37, 3-(3,4,5-Trimethoxyphenyl)-6-(4-methylphenyl)-1H-[1,2,4]triazolo[4,3-b][1,2,4]triazin-7-one] | 5.23 | 5.30 | < 5.00 | < 5.00 | – | – | – | –
COc1ccccc1-c1nnc2n1N=C(c1ccc(NC(C)=O)c([N+](=O)[O-])c1)CS2 [Example 56, 6-(4-Acetamido-3-nitrophenyl)-3-(2-methoxyphenyl)-7H-[1,2,4]triazolo[3,4-b][1,3,4]thiadiazine] | 6.32 | 6.48 | 6.30 | 6.57 | – | – | – | –
COc1ccccc1C1=Nn2c(nnc2-c2ccccc2OC)SC1 [Example 64, 3-(2-Methoxyphenyl)-6-(2-methoxylphenyl)-7H-[1,2,4]triazolo[3,4-b][1,3,4]thiadiazine] | < 5.00 | < 5.00 | < 5.00 | < 5.00 | – | – | – | –
CCN(CC)S(=O)(=O)c1ccc(C2=Nn3c(nnc3-c3ccccc3C)SC2)cc1 [Example 52, 6-(4-(N,N-Diethylaminosulfonyl)phenyl)-3-(2-methylphenyl)-7H-[1,2,4]triazolo[3,4-b][1,3,4]thiadiazine] | < 5.00 | < 5.00 | < 5.00 | < 5.00 | – | – | – | –
COc1ccccc1-c1nnc2n1N=C(c1ccc(C#N)cc1)CS2 [Example 87, 6-(4-Cyanophenyl)-3-(2-methoxyphenyl)-7H-[1,2,4]triazolo[3,4-b][1,3,4]thiadiazine] | 5.48 | 5.59 | 5.29 | 5.64 | – | – | – | –
Cc1ccc(C2=Nn3c(nnc3-c3ccc[nH]3)SC2)cc1 [Example 92, 6-(4-Methylphenyl)-3-(1H-pyrrol-2-yl)-7H-[1,2,4]triazolo[3,4-b][1,3,4]thiadiazine] | < 5.00 | < 5.00 | < 5.00 | < 5.00 | – | – | – | –
COc1ccccc1-c1n[nH]c2nc(=O)c(-c3ccc(C)cc3)nn12 [Example 38, 3-(2-Methoxyphenyl)-6-(4-methylphenyl)-1H-[1,2,4]triazolo[4,3-b][1,2,4]triazin-7-one] | < 5.00 | < 5.00 | < 5.00 | < 5.00 | – | – | – | –
COC(=O)c1ccc(C2=Nn3c(nnc3-c3ccccc3OC)SC2)cc1 [Example 85, 6-(4-Methoxycarbonylphenyl)-3-(2-methoxyphenyl)-7H-[1,2,4]triazolo[3,4-b][1,3,4]thiadiazine] | 6.56 | 6.60 | 6.53 | 6.68 | – | – | – | –
COc1ccccc1-c1nnc2n1NC(c1ccc(C)cc1)CS2 (stereo not shown) [Example 88, 5,6-Dihydro-3-(2-methoxyphenyl)-6-(4-methylphenyl)-7H-[1,2,4]triazolo[3,4-b][1,3,4]thiadiazine] | 5.27 | 5.60 | 5.55 | 5.81 | – | – | – | –
COc1ccccc1-c1nnc2n1N=C(c1ccc(C)c([N+](=O)[O-])c1)CS2 [Example 54, 3-(2-Methoxyphenyl)-6-(4-methyl-3-nitrophenyl)-7H-[1,2,4]triazolo[3,4-b][1,3,4]thiadiazine] | 6.26 | 6.51 | 6.36 | 6.54 | – | – | – | –
COc1ccccc1-c1nnc2n1N=C(c1ccc(OC(F)(F)F)cc1)CS2 [Example 50, 3-(2-Methoxyphenyl)-6-(4-(trifluoromethoxy)phenyl)-7H-[1,2,4]triazolo[3,4-b][1,3,4]thiadiazine] | 6.26 | 6.28 | 6.25 | 6.30 | – | – | – | –
COc1cc(C2=Nn3c(nnc3-c3ccccc3OC)SC2)ccc1N [Example 57, 6-(4-Amino-3-methoxyphenyl)-3-(2-methoxyphenyl)-7H-[1,2,4]triazolo[3,4-b][1,3,4]thiadiazine] | 5.58 | 5.64 | 5.54 | 5.63 | – | – | – | –
Cc1ccccc1-c1nnc2n1N=C(c1ccc(C(C)(C)C)cc1)CS2 [Example 51, 6-(4-tert-Butylphenyl)-3-(2-methylphenyl)-7H-[1,2,4]triazolo[3,4-b][1,3,4]thiadiazine] | < 5.00 | < 5.00 | < 5.00 | < 5.00 | – | – | – | –
Cc1ccc(C2=Nn3c(nnc3-c3cccn3C)SC2)cc1 [Example 94, 3-(1-Methyl-1H-pyrrol-2-yl)-6-(4-methylphenyl)-7H-[1,2,4]triazolo[3,4-b][1,3,4]thiadiazine] | 5.58 | 5.84 | 5.26 | 5.89 | – | – | – | –
COc1ccc(-c2nn3c(-c4ccccc4OC)nnc3[nH]c2=O)cc1 [Example 36, 3-(2-Methoxyphenyl)-6-(4-methoxyphenyl)-[1,2,4]triazolo[4,3-b][1,2,4]triazin-7(8H)-one] | < 5.00 | – | < 5.00 | < 5.00 | – | – | – | –

Continued, values first:

pEC50 [1, 5] | pEC50 [2, 6] | pEC50 [3, 7] | pEC50 [4, 8] | pEC50 [1, 9] | pEC50 [2, 10] | pEC50 [3, 11] | pEC50 [4, 12] | Structure (SMILES)
6.16 | 6.95 | 6.28 | – | – | – | – | – | COc1cccc(-c2nnc3n2N=C(c2ccc(O)c(O)c2)CS3)c1 [Example D2, 3-(3-Methoxyphenyl)-6-(3,4-dihydroxyphenyl)-7H-[1,2,4]triazolo[3,4-b][1,3,4]thiadiazine]
– | – | – | – | 7.47 | 8.22 | 8.10 | 8.40 | COc1cc(Cl)ccc1-c1nnc2n1N=C(c1ccc(C)cc1)CS2 [Example 97, 3-(4-Chloro-2-methoxyphenyl)-6-(4-methylphenyl)-7H-[1,2,4]triazolo[3,4-b][1,3,4]thiadiazine]
5.96 | 6.37 | 6.17 | – | – | – | – | – | CCOc1ccc(C2=Nn3c(nnc3-c3cccc(Cl)c3)SC2)cc1 [Example E2, 3-(3-Chlorophenyl)-6-(4-ethoxyphenyl)-7H-[1,2,4]triazolo[3,4-b][1,3,4]thiadiazine]
– | – | – | – | 6.87 | 7.46 | 7.10 | 7.51 | COc1ccccc1-c1nnc2n1N=C(c1cc(Br)c3c(c1)CCN3)CS2 [Example 96, 6-(7-Bromoindolin-5-yl)-3-(2-methoxyphenyl)-7H-[1,2,4]triazolo[3,4-b][1,3,4]thiadiazine]
5.44 | 5.42 | 5.27 | 5.55 | – | – | – | – | COc1ccccc1-c1nnc2n1N=C(c1ccccc1)CS2 [Example K3]
5.89 | 6.12 | 5.58 | 6.23 | – | – | – | – | COc1cccc(C2=Nn3c(nnc3-c3ccc(Cl)cc3Cl)SC2)c1 [Example O3]
6.40 | 7.22 | 6.75 | – | – | – | – | – | COc1ccc(C2=Nn3c(nnc3-c3ccccc3Cl)SC2)cc1 [Example C2, 3-(2-Chlorophenyl)-6-(4-methoxyphenyl)-7H-[1,2,4]triazolo[3,4-b][1,3,4]thiadiazine]
5.27 | 5.57 | < 5.00 | – | – | – | – | – | COc1cccc(-c2nnc3n2N=C(c2ccc(Br)cc2)CS3)c1 [Example F2, 3-(3-Methoxyphenyl)-6-(4-bromophenyl)-7H-[1,2,4]triazolo[3,4-b][1,3,4]thiadiazine]
5.20 | 5.59 | < 5.00 | – | – | – | – | – | CCOc1ccc(C2=Nn3c(nnc3-c3cccc(OCC)c3)SC2)cc1 [Example G2, 3-(3-Ethoxyphenyl)-6-(4-ethoxyphenyl)-7H-[1,2,4]triazolo[3,4-b][1,3,4]thiadiazine]
